Earlier results in patent US9301906B2, “Dentrifice composition” (Kao Corporation, priority 2011, dated 2016).

solubility in 100 g of an aqueous solution at 20° C.	Compound
60 g in 100 g of an aqueous solution	OC[C@@H](O)[C@@H](O[C@H]1O[C@H](CO)[C@@H](O)[C@H](O)[C@H]1O)[C@H](O)[C@@H](O)CO [maltitol]
18 g in 100 g of an aqueous solution	OC[C@@H](O)[C@@H](O)[C@H](O)[C@H](O)CO [mannitol]

Further lines, the compound ahead of its results:

Compound	solubility in 100 g of an aqueous solution at 20° C.
OC[C@@H](O)[C@@H](O)[C@H](O)[C@@H](O)CO [sorbitol]	72 g in 100 g of an aqueous solution
OC[C@@H](O)[C@@H](O)CO [erythritol]	36 g in 100 g of an aqueous solution
OC[C@@H](O)[C@H](O)[C@@H](O)CO [xylitol]	66 g in 100 g of an aqueous solution
